Measurements as given in ChEMBL document CHEMBL1201862, “PubChem BioAssay data set” (2004).
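Growth conditions: 96-well plates. Treatment: test compound, 48 hours, 5 concentrations. Analysis: linear interpolation between bracketing concentrations; unreached endpoints set to highest concentration. The concentration for 50% growth inhibition is given as GI50.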 Activity calls are given as the source filed them. No stated cut-off is given here; in the data, active = GI50 up to about 1.1 µM and inactive = higher.

Assays:
Assay in all cases: growth of human tumour cells (NCI), 48 h
[1] = system: SK-MEL-28
[2] = system: 786-0
[3] = system: EKVX
[4] = system: SK-MEL-5
[5] = system: HOP-62
[6] = system: COLO 205
[7] = system: PC-3
[8] = system: MDA-MB-231
[9] = system: SR
[10] = system: SF-539
[11] = system: HT-29
[12] = system: SK-MEL-2
[13] = system: NCI-H522
[14] = system: NCI-H226
[15] = system: A549
[16] = system: T47D
[17] = system: U-251
[18] = system: BT-549
[19] = system: A498
[20] = system: MCF7
[21] = system: UACC-257
[22] = system: HCT-116
[23] = system: SW-620
[24] = system: HCT-15
[25] = system: HCC 2998
[26] = system: SK-OV-3
[27] = system: MOLT-4
[28] = system: OVCAR-8
[29] = system: TK-10
[30] = system: Malme-3M
[31] = system: UACC-62
[32] = system: RPMI-8226
[33] = system: LOX IMVI
[34] = system: IGROV-1
[35] = system: OVCAR-3
[36] = system: CCRF-CEM
[37] = system: UO-31
[38] = system: DU-145
[39] = system: K562
[40] = system: ACHN
[41] = system: Hs-578T
[42] = system: CAKI-1
[43] = system: KM12
[44] = system: HL-60
[45] = system: M14
[46] = system: OVCAR-5
[47] = system: SF-295
[48] = system: SNB-19
[49] = system: SN12C
[50] = system: NCI-H23
[51] = system: NCI/ADR-RES
[52] = system: MDA-MB-435
[53] = system: SF-268
[54] = system: MDA-N
[55] = system: NCI-H460
[56] = system: SNB-75
[57] = system: HOP-92
[58] = system: OVCAR-4
[59] = system: RXF 393

For `CC(=O)OC(Cc1c(O)c2c(C)cccc2oc1=O)C(C)(C)O` (centres undefined), the GI50 [1] was 88.1 µM (inactive), the GI50 [2] was > 100 µM (inactive) and the GI50 [3] was > 100 µM (inactive). For the same compound, the GI50 [4] was > 100 µM (inactive), the GI50 [5] was > 100 µM (inactive) and the GI50 [6] was > 100 µM (inactive). The GI50 [7] was 51.4 µM (inactive), the GI50 [8] was > 100 µM (inactive) and the GI50 [9] was 55.1 µM (inactive). For the same compound, the GI50 [10] was > 100 µM (inactive), the GI50 [11] was > 100 µM (inactive) and the GI50 [12] was > 100 µM (inactive). The GI50 [13] was > 100 µM (inactive), the GI50 [14] was > 100 µM (inactive) and the GI50 [15] was > 100 µM (inactive). For the same compound, the GI50 [16] was 60.4 µM (inactive), the GI50 [17] was > 100 µM (inactive) and the GI50 [18] was > 100 µM (inactive). The GI50 [19] was > 100 µM (inactive), the GI50 [20] was > 100 µM (inactive) and the GI50 [21] was > 100 µM (inactive). The GI50 [22] was 53.6 µM (inactive), the GI50 [23] was > 100 µM (inactive) and the GI50 [24] was greater than 100 µM. The GI50 [25] was > 100 µM (inactive), the GI50 [26] was > 100 µM (inactive) and the GI50 [27] was 46.8 µM (inactive). The GI50 [28] was > 100 µM (inactive), the GI50 [29] was > 100 µM (inactive) and the GI50 [30] was > 100 µM (inactive). The GI50 [31] was 77.4 µM (inactive), the GI50 [32] was > 100 µM (inactive) and the GI50 [33] was > 100 µM (inactive). The GI50 [34] was > 100 µM (inactive), the GI50 [35] was > 100 µM (inactive) and the GI50 [36] was 88.5 µM (inactive). The GI50 [37] was > 100 µM (inactive), the GI50 [38] was > 100 µM (inactive) and the GI50 [39] was > 100 µM (inactive). The GI50 [40] was > 100 µM (inactive), the GI50 [41] was > 100 µM (inactive) and the GI50 [42] was > 100 µM (inactive). The GI50 [43] was > 100 µM (inactive), the GI50 [44] was 72.6 µM (inactive) and the GI50 [45] was > 100 µM (inactive). For the same compound, the GI50 [46] was > 100 µM (inactive), the GI50 [47] was > 100 µM (inactive) and the GI50 [48] was > 100 µM (inactive). The GI50 [49] was > 100 µM (inactive), the GI50 [50] was > 100 µM (inactive) and the GI50 [51] was 92.3 µM (inactive). For the same compound, the GI50 [52] was > 100 µM (inactive), the GI50 [53] was 91.4 µM (inactive) and the GI50 [54] was > 100 µM (inactive). The GI50 [55] was > 100 µM (inactive) and the GI50 [56] was 76 µM (inactive).
For `CC(=O)O[C@H]1[C@@H](N2CCN(C)CC2)C[C@H]2[C@@H]3CC=C4C[C@@H](N5CCCC5)CC[C@]4(C)[C@H]3CC[C@@]21C`, the GI50 [1] was 28.1 µM (inactive), the GI50 [2] was 25.8 µM (inactive) and the GI50 [3] was 74.5 µM (inactive). For the same compound, the GI50 [4] was 25.9 µM (inactive), the GI50 [5] was 46.5 µM (inactive) and the GI50 [6] was 3.85 µM (inactive). For the same compound, the GI50 [7] was 40.9 µM (inactive), the GI50 [8] was 63 µM (inactive) and the GI50 [9] was < 0.01 µM (active). For the same compound, the GI50 [10] was 15 µM (inactive), the GI50 [11] was 4.14 µM (inactive) and the GI50 [12] was > 100 µM (inactive). The GI50 [13] was 23.4 µM (inactive), the GI50 [14] was > 100 µM (inactive) and the GI50 [57] was > 100 µM (inactive). The GI50 [15] was 37.7 µM (inactive), the GI50 [16] was > 100 µM (inactive) and the GI50 [17] was 50 µM (inactive). For the same compound, the GI50 [18] was > 100 µM (inactive), the GI50 [19] was > 100 µM (inactive) and the GI50 [20] was > 100 µM (inactive). The GI50 [21] was 21.1 µM (inactive), the GI50 [22] was 16.9 µM (inactive) and the GI50 [23] was 44.9 µM (inactive). The GI50 [24] was 26.1 µM, the GI50 [25] was 17.2 µM (inactive) and the GI50 [26] was > 100 µM (inactive). The GI50 [27] was 15.6 µM (inactive), the GI50 [28] was 85.1 µM (inactive) and the GI50 [29] was > 100 µM (inactive). For the same compound, the GI50 [30] was 26.1 µM (inactive), the GI50 [31] was 59.4 µM (inactive) and the GI50 [58] was > 100 µM (inactive). The GI50 [32] was 19.2 µM (inactive), the GI50 [33] was 17.4 µM (inactive) and the GI50 [34] was 68.4 µM (inactive). The GI50 [35] was 88.7 µM (inactive), the GI50 [36] was 30.4 µM (inactive) and the GI50 [37] was 34.9 µM (inactive). For the same compound, the GI50 [39] was 11.2 µM (inactive), the GI50 [40] was > 100 µM (inactive) and the GI50 [41] was > 100 µM (inactive). For the same compound, the GI50 [42] was 49.4 µM (inactive), the GI50 [43] was 22.4 µM (inactive) and the GI50 [44] was 11.2 µM (inactive). The GI50 [45] was 17.8 µM (inactive), the GI50 [46] was 34.5 µM (inactive) and the GI50 [47] was 21.7 µM (inactive). The GI50 [48] was > 100 µM (inactive), the GI50 [49] was > 100 µM (inactive) and the GI50 [50] was > 100 µM (inactive). For the same compound, the GI50 [51] was 98.4 µM (inactive), the GI50 [59] was 22.2 µM (inactive) and the GI50 [52] was 24.6 µM (inactive). For the same compound, the GI50 [53] was 47.6 µM (inactive), the GI50 [54] was 26.1 µM (inactive) and the GI50 [55] was 60.5 µM (inactive). The GI50 [56] was > 100 µM (inactive).
